This note sets out measurements from publication PMC6691772, “Novel phthalimide based analogues: design, synthesis, biological evaluation, and molecular docking studies” (Journal of Enzyme Inhibition and Medicinal Chemistry, 2019).

Values after ≈ are worked out from the molar mass of the structure shown.

One data set has as its system C. albicans RCMB 005036. Put plainly: Agar well diffusion, inhibition zone. The class given is cell-based, Candida albicans. Further details: key: –: -: No activity under the screening conditions. Conditions: 1 mg/mL, mean of three values.
Data set [1] relates to E. coli RCMB 010052. Put plainly: Minimum inhibitory concentration, modified agar well diffusion. The class given is cell-based. As to conditions: Escherichia coli, RCMB010052, mean of three values, read-out: MIC (Mean ± SEM).
Data set [2] deals with A. fumigatus RCMB 002568. The data set is described as above. The class given is cell-based. Conditions: Aspergillus fumigatus, RCMB002568, mean of three values, read-out: MIC (Mean ± SEM).
For data set [3], the system named is B. subtilis RCMB 010067. The experiment in a line: Agar well diffusion, inhibition zone. The class given is cell-based, Bacillus subtilis. Set-up: key to Mean diameter of inhibition zone (Mean ± SEM): –: -: No activity under the screening conditions. Conditions: mean of three values; for Mean diameter of inhibition zone (Mean ± SEM): 1 mg/mL. On the technique in general: Agar diffusion results depend on both activity and mobility in agar.

The test system of data set [4] is E. coli RCMB 010052. The experiment in a line: Agar well diffusion, inhibition zone. The class given is cell-based, Escherichia coli. Set-up: key to Mean diameter of inhibition zone (Mean ± SEM): –: -: No activity under the screening conditions. Conditions: mean of three values; for Mean diameter of inhibition zone (Mean ± SEM): 1 mg/mL.
Data set [5] deals with human liver cancer cell line (HepG-2). The experiment in a line: MTT anticancer assay. The class given is cell-based. Conditions: HepG2, HePG-2 cancer liver cell line, mean of three values, read-out: IC50 (Mean ± SEM). (In general: Tetrazolium assays rely on reduction of a dye to a coloured formazan, in cell work by metabolically active cells.)
Data set [6] concerns (THLE-2) normal liver cell line. Put plainly: Cytotoxic screening on normal liver cells. The class given is cell-based. Conditions: Homo sapiens, mean of three values, read-out: IC50 (Mean ± SEM).
The subject of data set [7] is S. pneumonia RCMB 010010. Put plainly: Minimum inhibitory concentration, modified agar well diffusion. The class given is cell-based. Conditions: Streptococcus pneumoniae, RCMB010010, mean of three values, read-out: MIC (Mean ± SEM).
The subject of data set [8] is S. pneumonia RCMB 010010. Put plainly: Agar well diffusion, inhibition zone. The class given is cell-based, Streptococcus pneumoniae. Conditions: mean of three values; for Mean diameter of inhibition zone (Mean ± SEM): 1 mg/mL. Further details: key to Mean diameter of inhibition zone (Mean ± SEM): –: -: No activity under the screening conditions.
The target in another data set is E. coli DNA gyrase B (Escherichia coli, UniProt P0AES6). Put plainly: In-vitro enzyme assay on DNA gyrase B. The class given is biochemical.
Data set [9] relates to A. fumigatus RCMB 002568. Put plainly: Agar well diffusion, inhibition zone. It counts as cell-based, Aspergillus fumigatus. Further details: key to Mean diameter of inhibition zone (Mean ± SEM): –: -: No activity under the screening conditions. Conditions: mean of three values; for Mean diameter of inhibition zone (Mean ± SEM): 1 mg/mL.
The test system of data set [10] is B. subtilis RCMB 010067. The experiment in a line: Minimum inhibitory concentration, modified agar well diffusion. Conditions: Bacillus subtilis, RCMB010067, mean of three values, read-out: MIC (Mean ± SEM). The class given is cell-based.
The target of another data set is VEGFR-2 (Homo sapiens, UniProt P35968). Put plainly: In-vitro enzyme assay on VEGFR-2. The class given is biochemical. As to conditions: read-out: IC50 (Mean ± SEM).
Data set [11] concerns P. aeruginosa RCMB 010043. Put plainly: Agar well diffusion, inhibition zone. Further details: key to Mean diameter of inhibition zone (Mean ± SEM): –: -: No activity under the screening conditions. It counts as cell-based, Pseudomonas aeruginosa. Conditions: mean of three values; for Mean diameter of inhibition zone (Mean ± SEM): 1 mg/mL.
The test system of data set [12] is P. aeruginosa RCMB 010043. Put plainly: Minimum inhibitory concentration, modified agar well diffusion. It counts as cell-based. Conditions: Pseudomonas aeruginosa, RCMB010043, mean of three values, read-out: MIC (Mean ± SEM).
The test system of data set [13] is tested bacterial and fungal strains. Put plainly: Antimicrobial screening, summary over all tested strains. The class given is cell-based. As to conditions: 1 mg/mL. An excerpt: All bacterial and fungal strains were received from the culture collection of the Regional Center for Mycology and Biotechnology (RCMB), Al-Azhar University, Cairo, Egypt. All target derivatives were screened in-vitro opposite to various kinds of bacteria, Gram-positive bacteria (Streptococcus pneumoniae and Bacillus subtilis) and Gram-negative bacteria (Pseudomonas aeruginosa and Escherichia coli) and for their Antifungal activities against Aspergillus fumigatus and Candida albicans, respectively. Ampicillin and gentamycin were used as standard antibacterial drugs while amphotericin B was used as reference antifungal drug. The diameter of inhibition zone (mm) was measured for the biological activity using the diffusion technique. The promising compounds were further investigated to evaluate their antimicrobial activity expressed in terms of minimum inhibitory concentration (MIC) using the modified agar well diffusion method.
The newly prepared targets were subjected for in-vitro antibacterial screening against Gram-positive bacteria (Streptococcus pneumonia and Bacillus subtilis) and Gram-negative bacteria (Pseudomonas aeruginosa and Escherichia coli). […] The compounds’ solutions of concentrations (1 mg/mL) were evaluated against the different microorganism’s and the inhibition zone (IZ) used diameter in mm for the biologically activity (agar well diffusion method).

Chain of VEGFR-2 (P35968 20-1356): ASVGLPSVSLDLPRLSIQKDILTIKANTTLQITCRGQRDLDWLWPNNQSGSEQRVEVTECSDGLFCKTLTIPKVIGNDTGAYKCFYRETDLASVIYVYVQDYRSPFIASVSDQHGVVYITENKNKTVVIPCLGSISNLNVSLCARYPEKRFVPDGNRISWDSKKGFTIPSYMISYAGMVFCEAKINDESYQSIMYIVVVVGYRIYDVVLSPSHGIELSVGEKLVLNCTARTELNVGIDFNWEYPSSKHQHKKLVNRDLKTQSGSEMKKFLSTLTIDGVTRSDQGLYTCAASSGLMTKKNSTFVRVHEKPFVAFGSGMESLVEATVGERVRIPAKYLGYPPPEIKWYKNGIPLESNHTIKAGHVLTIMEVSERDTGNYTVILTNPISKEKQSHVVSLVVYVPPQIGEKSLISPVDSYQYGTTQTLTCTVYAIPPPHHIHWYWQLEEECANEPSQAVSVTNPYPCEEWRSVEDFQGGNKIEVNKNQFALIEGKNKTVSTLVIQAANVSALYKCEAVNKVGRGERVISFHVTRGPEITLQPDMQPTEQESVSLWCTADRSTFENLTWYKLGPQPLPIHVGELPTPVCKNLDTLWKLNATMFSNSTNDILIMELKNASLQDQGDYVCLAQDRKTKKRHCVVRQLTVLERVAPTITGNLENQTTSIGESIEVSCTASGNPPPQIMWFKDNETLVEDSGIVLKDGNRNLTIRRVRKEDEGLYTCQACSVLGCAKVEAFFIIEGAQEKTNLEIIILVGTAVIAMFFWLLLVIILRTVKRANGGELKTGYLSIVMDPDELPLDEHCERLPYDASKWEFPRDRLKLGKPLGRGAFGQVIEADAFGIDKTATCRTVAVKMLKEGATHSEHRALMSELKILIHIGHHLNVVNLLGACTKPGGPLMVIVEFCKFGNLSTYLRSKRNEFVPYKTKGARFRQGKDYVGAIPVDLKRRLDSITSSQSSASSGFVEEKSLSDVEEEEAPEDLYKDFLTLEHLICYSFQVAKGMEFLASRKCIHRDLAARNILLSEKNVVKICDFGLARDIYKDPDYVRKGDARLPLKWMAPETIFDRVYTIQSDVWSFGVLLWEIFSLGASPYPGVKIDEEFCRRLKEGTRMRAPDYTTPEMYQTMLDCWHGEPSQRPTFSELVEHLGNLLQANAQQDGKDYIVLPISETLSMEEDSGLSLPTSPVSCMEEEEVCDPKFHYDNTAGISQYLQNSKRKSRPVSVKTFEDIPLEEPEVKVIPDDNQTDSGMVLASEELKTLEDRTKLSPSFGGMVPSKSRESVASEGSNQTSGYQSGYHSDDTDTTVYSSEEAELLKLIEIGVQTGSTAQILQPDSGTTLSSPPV

For the compound `NC1=NNC(=O)C1=NNN1C(=O)c2ccccc2C1=O` [Compound 4, 2-(2-(3-Amino-5-oxo-1H-pyrazol-4(5H)-ylidene)hydrazinyl)isoindoline-1,3-dione], the melting point (commonly the temperature, or range, at which the solid turns liquid) is 289 to 290 °C. For the same compound, the “Mean diameter of inhibition zone (Mean ± SEM)” value in the data set on C. albicans RCMB 005036 was “–”. The MIC (in general, the least concentration at which growth counts as inhibited) in the data set with E. coli RCMB 010052 [1] came to 0.49 ± 0.39 µg/mL (≈ 1.8 µM). For the same compound, the MIC with A. fumigatus RCMB 002568 [2] worked out at 1.95 ± 0.28 µg/mL (≈ 7.16 µM). For the same compound, the zone of inhibition – broadly, the size of the clear area around the sample on an inoculated plate – at 1000 µg/mL with B. subtilis RCMB 010067 [3] (Bacillus subtilis, RCMB010067, 1 mg/mL, read-out: Mean diameter of inhibition zone (Mean ± SEM)) amounted to 25.1 ± 0.5 mm. Besides, in the data set on E. coli RCMB 010052 [4] (Escherichia coli, RCMB010052, 1 mg/mL, read-out: Mean diameter of inhibition zone (Mean ± SEM)), the zone of inhibition at 1000 µg/mL came to 24.5 ± 0.3 mm. For the same compound, the IC50 (in general, the point on the concentration scale where inhibition reaches its midpoint) in [5] was found to be 4.22 ± 1.04 µg/mL (≈ 15.5 µM). The IC50 in data set [6] amounted to 874.31 ± 0.22 µg/mL (≈ 3210 µM). The MIC in the data set on S. pneumonia RCMB 010010 [7] is 1.95 ± 0.23 µg/mL (≈ 7.16 µM). For the same compound, the zone of inhibition at 1000 µg/mL with S. pneumonia RCMB 010010 [8] (Streptococcus pneumoniae, RCMB010010, 1 mg/mL, read-out: Mean diameter of inhibition zone (Mean ± SEM)) was 23 ± 0.4 mm. At E. coli DNA gyrase B, this compound showed an IC50 of 340 ± 630 nM. The zone of inhibition at 1000 µg/mL in the data set on A. fumigatus RCMB 002568 [9] (Aspergillus fumigatus, RCMB002568, 1 mg/mL, read-out: Mean diameter of inhibition zone (Mean ± SEM)) was found to be 23.1 ± 0.5 mm. For the same compound, the MIC with B. subtilis RCMB 010067 [10] was 0.98 ± 0.42 µg/mL (≈ 3.6 µM). At VEGFR-2, the 50% inhibitory concentration (IC50) came out at 90 nM. In addition, the zone of inhibition at 1000 µg/mL in data set [11] (Pseudomonas aeruginosa, RCMB010043, 1 mg/mL, read-out: Mean diameter of inhibition zone (Mean ± SEM)) was found to be 19.2 ± 0.5 mm. For the same compound, the MIC in [12] turned out to be 0.98 ± 0.02 µg/mL (≈ 3.6 µM).

As to `O=C1Cn2nc(O)c(N=NN3C(=O)c4ccccc4C3=O)c2N1` [Compound 5, 2-((6-Hydroxy-2-oxo-2,3-dihydro-1H-imidazo[1,2-b]pyrazol-7-yl)diazenyl)-isoindoline-1,3-dione], the melting point lay in the range of 157 to 158 °C. For the same compound, the “Mean diameter of inhibition zone (Mean ± SEM)” value in the data set on C. albicans RCMB 005036 is “–”. The “Mean diameter of inhibition zone (Mean ± SEM)” value with B. subtilis RCMB 010067 [3] is “–”. The “Mean diameter of inhibition zone (Mean ± SEM)” value in the data set with E. coli RCMB 010052 [4] was “–”. The half-maximal inhibitory concentration (IC50) in [5] turned out to be 31.8 ± 1.56 µg/mL (≈ 102 µM). In data set [6], the half-inhibitory concentration (IC50) stood at 597.83 ± 0.14 µg/mL (≈ 1910 µM). Also, the “antimicrobial activity, overall” value in data set [13] is on record as “no antimicrobial activities”. Also, in the data set with S. pneumonia RCMB 010010 [8], the “Mean diameter of inhibition zone (Mean ± SEM)” value was “–”. Further, in the data set on A. fumigatus RCMB 002568 [9], the “Mean diameter of inhibition zone (Mean ± SEM)” value is “–”. Besides, the “Mean diameter of inhibition zone (Mean ± SEM)” value in data set [11] is reported as “–”.

Turning to `Nc1c(C(=O)c2ccccc2)cnc2c(N=NN3C(=O)c4ccccc4C3=O)c(O)nn12` [Compound 14, 2-[(7-Amino-6-benzoyl-2-hydroxypyrazolo[1,5-a]pyrimidin-3-yl)diazenyl]-1H-isoindole-1,3(2H)-dione], the melting point was 295 to 297 °C. The “Mean diameter of inhibition zone (Mean ± SEM)” value in the data set on C. albicans RCMB 005036 is “–”. Further, the “Mean diameter of inhibition zone (Mean ± SEM)” value in the data set with B. subtilis RCMB 010067 [3] was “–”. Besides, in the data set on E. coli RCMB 010052 [4], the “Mean diameter of inhibition zone (Mean ± SEM)” value was “–”. In addition, in data set [5], the IC50 was found to be 34.8 ± 1.26 µg/mL (≈ 81.4 µM). Besides, the half-inhibitory concentration (IC50) in data set [6] was found to be 725.44 ± 0.15 µg/mL (≈ 1700 µM). Further, the “antimicrobial activity, overall” value in data set [13] was “no antimicrobial activities”. Also, the “Mean diameter of inhibition zone (Mean ± SEM)” value in the data set on S. pneumonia RCMB 010010 [8] was “–”. For the same compound, in the data set on A. fumigatus RCMB 002568 [9], the “Mean diameter of inhibition zone (Mean ± SEM)” value is listed as “–”. Also, in data set [11], the “Mean diameter of inhibition zone (Mean ± SEM)” value was “–”.
